From patent US20020013478A1, “Calanolide analogues and methods of their use” (Sarawak Medichem Pharmaceuticals,Inc., priority 1994, published 2002)
Converted amounts (≈) assume the structure as drawn. Read-outs that look alike come from different tables or passages of the source.

Columns and labels:
HBV = HBV replication in cultures of 2.2.15 cells, extracellular HBV virion DNA (primary assay); conditions: for activity in primary assay (HBV virion): text summary of Table IV
[1] = system: human foreskin fibroblast cells; test: Toxicity run with the HCMV assay, human foreskin fibroblast cells; format: cell-based; conditions: Table II; for IC50: Homo sapiens, Fibroblast
Method: (§1) [table] […] The media from the wells is then aspirated and 2 mL of each drug concentration is then added to each well. The cells are then incubated in a CO2 incubator at 37° C. for 72 h. At the end of this time, the media-drug solution is removed and the cells washed. […] The cell-media mixture is then pipetted up and down vigorously to break up the cell suspension, and 0.2 mL of the mixture is added to 9.8 mL of Isoton III and counted using a Coulter Counter. Each sample is counted three times with three replicate wells per sample. The procedure for plating cells and adding drug is the same as for the MTT Assay. After drug addition, the plates are incubated for seven days in a CO2 incubator at 37° C. […] This is incubated in the CO2 incubator for one hour. The dye is aspirated and the cells are washed using a Nunc Plate Washer. […] The plates are rotated for 15 minutes and the optical densities are read at 550 nm on a plate reader.

HCMV = HCMV semi-automated CPE-inhibition assay in human foreskin fibroblast cells; format: cell-based, human cytomegalovirus; conditions: Table II; for EC50: Human betaherpesvirus 5, Fibroblast
2.2.15 cells = test: Toxicity in 2.2.15 cells, neutral red dye uptake; format: cell-based, human
Method: Cells of 2.2.15 were grown to confluence in 96-well flat-bottomed tissue culture plates and treated with compounds (in 0.2 mL culture medium/well) as described above. Four concentrations of each compound were assayed, each in triplicate cultures, in 3- to 10-fold steps. Untreated control cultures were maintained on each 96-well plate. On each 96-well plate, wells containing no cells were used to correct for light scattering.

CEM-SS cells = test: CEM-SS MTT assay, cytotoxicity (Table I); format: cell-based, human; conditions: Homo sapiens
HBV RI = test: HBV replication in 2.2.15 cells, intracellular DNA replication intermediates (secondary assay); conditions: for EC50: read-out: HBV RI EC50; for EC90: read-out: HBV RI EC90
[2] = system: human foreskin fibroblast cells; test: Toxicity run with the VZV assay, human foreskin fibroblast cells; format: cell-based; conditions: Table II
Method: as §1

Raji or Daudi cells = test: Toxicity run with the EBV assay; format: cell-based, human; conditions: Table II
Source text: IC50 (50% inhibitory concentration) is the concentration required to inhibit cell proliferation by 50%

EBV = EBV assay: superinfection of Raji or Daudi cells with P3HR-1, immunofluorescence for EA and VCA; format: cell-based, Epstein-Barr virus; conditions: Table II
Source text: There are two prototypes of infectious EBV. One is exemplified by the virus derived from supernatant fluids of the P3HR-1cell line. This cell line produces nontransforming virus that causes the production of early antigen (EA) after primary infection or superinfection of B cell lines. The other prototype is exemplified by the B-95-8 virus. This virus immortalized cord blood lymphocytes and induced tumors in marmosets.
The virus used in our assays is P3HR-1.
Ramos is an exceptional B cell line derived from Burkitt's lymphoma tumor but containing no detectable EBV genome copies and is EBNA negative. Ramos/AW was obtained by in vitro infection of Ramos with the P3HR-1 virus and contains one resident EBV genome copy/cell. Raji is a Burkitt's lymphoma cell line containing 60 EBV genomes/cell, and will be the primary cell used for screening antiviral activity against EBV EA expression. Daudi is a low level producer that contains 152 EBV genome copies/cell. It spontaneously expresses EBV EA in 0.25%-0.5% of the cells. It will be used in follow-up studies to confirm activity. These cell lines respond to superinfection by EBV by expressing EA(D), EA(R), and VCA. All cell lines are maintained in RPMI-1640 medium supplemented by 10% FCS, L-glutamine and 100 μg/mL gentamicin. The cultures are fed twice weekly and the cell concentration adjusted to 3×10^5/mL. The cells are kept at 37° C. in a humidified atmosphere with 5% CO2.
Cells are infected with the P3HR-1 strain of EBV and the drugs to be tested are added after adsorption (45 minutes at 37° C.) and washing of the cell cultures. The cultures are incubated for two days in complete medium to allow viral gene expression. Following the 48 hr incubation period, the number of cells of each sample are counted and smears made. Monoclonal antibodies to the different EA components and VCA are then added to the cells incubated and washed. This is followed by a fluorescein conjugated rabbit anti-mouse Ig antibody; and the number of fluorescence positive cells in the smears are counted. The total number of cells in the cultures positive for EA or VCA are then calculated and compared.

VZV = VZV plaque reduction assay in human foreskin fibroblast cells; format: cell-based, varicella zoster virus; conditions: Table II
Method: Two days prior to use, HFF cells are plated into six-well plates and incubated at 37° C. with 5% CO2 and 90% humidity. On the date of assay, the drug is made up at twice the desired concentration in 2x MEM and then serially diluted 1:5 in 2x MEM using six concentrations of drug. The initial starting concentration is usually 200 gg/mL down to 0.06 μg/mL. The virus to be used is diluted in MEM containing 10% FBS to a desired concentration which will give 20-30 plaques per well. The media is then aspirated from the wells and 0.2 mL of virus is added to each well in duplicate with 0.2 mL of media being added to drug toxicity wells. The plates are then incubated for one hour with shaking every fifteen minutes. After the incubation period, an equal amount of 1% agarose was added to an equal volume of each drug dilution. This will give final drug concentrations beginning with 100 μg/mL and ending with 0.03 μg/mL and a final agarose overlay concentration of 0.5%. The drug agarose mixture is applied to each well in 2 mL volume and the plates then incubated for three days, after which the cells were stained with a 1.5% solution of neutral red. At the end of 4-6hr incubation period, the stain is aspirated, and plaques counted using a stereomicroscope at lOx magnification.
The procedure is essentially the same as for the HSV plaque assay described above with two exceptions:
1. After addition of the drug, the plates are incubated for ten days.
2. On days three and six, an additional 1 mL overlay with equal amounts of 2x MEM and 1% agarose are added.

G910-6 HIV viral strain = test: In vitro MTT assay, AZT-resistant isolate (Example 37, FIGS. 1); conditions: G910-6 strain, FIGS. 1(a)-1(e)
H112-2 HIV viral strain = test: In vitro MTT assay, isolate not pre-treated with AZT (Example 37, FIGS. 2); conditions: H112-2 strain; FIGS. 2(a)-2(e)
HIV-1 [3] = test: microbe, parasite or virus in culture; conditions: Human immunodeficiency virus 1, CEM-SS
HIV-1 [4] = conditions: for Maximum Protection (%): CEM-SS MTT assay; for protecting cells against HIV infection: text summary of Table I
[5] = system: pyridinone-resistant A17 virus; conditions: cited from earlier work
HIV-1 [6] = conditions: cited from earlier work
[7] = system: AZT-resistant G-9106 strain of HIV; conditions: cited from earlier work
[8] = system: human T-lymphoblastic cells (CEM-SS); conditions: cited from earlier work
[9] = system: uninfected cells (MT-2, CEM-SS); test: MTT cytotoxicity on uninfected cells (Example 37); format: cell-based, human
[10] = Hepatitis B virus, read-out: HBV EC50
[11] = Homo sapiens, Table II, read-out: HBV IC50

Structure (SMILES): CCCc1cc(=O)oc2c3c(c4c(c12)OC(C)(C)C=C4)OC(C)C(C)(C)C3=O (racemic) [(±)-15a, (±)-10,11-Dihydro-6,6,10,11,11-pentamethyl-4-propyl-2H,6H, 12H-benzo[1,2-b:3,4-b′:5,6-b″]tripyran-2,12-dione]
- EC50 (HBV; [10]): 2000 nM
- EC90 (HBV; Hepatitis B virus, read-out: HBV EC90): 16 µM
- EC50 (HBV; Hepatitis B virus, read-out: HBV Virion EC50): 2800 nM
- EC90 (HBV; Hepatitis B virus, read-out: HBV Virion EC90): 20 µM
- activity in primary assay (HBV virion) (HBV): active
- IC50 [1]: > 100 µg/mL
- EC50 (HCMV): > 100 µg/mL
- IC50 (2.2.15 cells; [11]): 1990 µM
- IC50 (2.2.15 cells; Homo sapiens, Table IV, HBV RI columns, read-out: HBV RI IC50): 1790 µM
- IC50 (2.2.15 cells; Homo sapiens, Table IV, HBV Virion columns, read-out: HBV Virion IC50): 1790 µM
- IC50 (CEM-SS cells): 19.3 µM
- EC50 (HBV RI; Hepatitis B virus): > 30 µM
- EC90 (HBV RI; Hepatitis B virus): > 30 µM

Structure (SMILES): CCCc1cc(=O)oc2c3c(c4c(c12)OC(C)(C)C=C4)OCC(C)C3=O (racemic) [(±)-15f]
- VZV IC50 [2]: 60.0 µg/mL
- EC50 (HBV; read-out: HBV EC50, Table II): 670 nM
- EC50 (HBV; read-out: HBV Virion EC50, Table IV): 810 nM
- EC90 (HBV; read-out: HBV Virion EC90, Table IV): 5 µM
- activity in primary assay (HBV virion) (HBV): active
- EBV IC50 (Raji or Daudi cells): >50 µg/mL
- HCMV IC50 [1]: >100 µg/mL
- EBV EC50 (EBV): >50 µg/mL
- VZV EC50 (VZV): >20 µg/mL
- HCMV EC50 (HCMV): >100 µg/mL
- IC50 (2.2.15 cells; Table II, read-out: HBV IC50): 270 µM
- IC50 (2.2.15 cells; Table IV, HBV RI columns, read-out: HBV RI IC50): 303 µM
- IC50 (2.2.15 cells; Table IV, HBV Virion columns, read-out: HBV Virion IC50): 303 µM
- EC50 (HBV RI; Table IV): 5.7 µM
- EC90 (HBV RI; Table IV): 15 µM
- activity in secondary assay (HBV RI) (HBV RI; text summary of Table IV): active

Structure (SMILES): CCCc1cc(=O)oc2c3c(c4c(c12)OC(C)(C)C=C4)O[C@H](C)[C@@H](C)[C@@H]3O (racemic) [(±)-calanolide A, (±)-Calanolide A]
- antiviral effect (reducing viral CPE) (G910-6 HIV viral strain): effective in reducing viral CPE
- antiviral effect (reducing viral CPE) (H112-2 HIV viral strain): nearly as effective as (+)-calanolide A

Structure (SMILES): CCCc1cc(=O)oc2c(C(=O)[C@@H](C)[C@@H](C)O)c(O)c3c(c12)OC(C)(C)C=C3 (relative stereo) [(±)-8a, 6,6-Dimethyl-9-hydroxy-10-[2(S*)-methyl-3(R*)-hydroxybutyro-]4-propyl-2H,6H-benzo[1,2-b:3,4b′]dipyran-2-one]
- EC50 (HIV-1 [3]): 6.16 µM
- Maximum Protection (%) (HIV-1 [4]): 84%
- protecting cells against HIV infection (HIV-1 [4]): highly efficacious
- melting point: 66 to 67 °C
- IC50 (CEM-SS cells): 23.8 µM

Structure (SMILES): CCCc1cc(=O)oc2c(C(=O)[C@@H](C)[C@H](C)O)c(O)c3c(c12)OC(C)(C)C=C3 (relative stereo) [(±)-8b, 6,6-Dimethyl-9-hydroxy-10-12(S*)-methyl-3(S*)-hydroxybutyro]4-propyl-2H,6H-benzo[1,2-b:3,4-b′]dipyran-2-one]
- EC50 (HIV-1 [3]): 2.28 µM
- Maximum Protection (%) (HIV-1 [4]): 81%
- protecting cells against HIV infection (HIV-1 [4]): highly efficacious
- melting point: 115 °C
- IC50 (CEM-SS cells): 21.5 µM

Structure (SMILES): CCCc1cc(=O)oc2c3c(c4c(c12)OC(C)(C)C=C4)O[C@H](C)[C@@H](C)[C@@H]3O [(+)-1, (+)-Calanolide A]
- antiviral effect (reducing viral CPE) (G910-6 HIV viral strain): effective in reducing viral CPE
- activity against pyridinone-resistant A17 virus [5]: active
- EC50 (HIV-1 [6]; HIV-1 replication in CEM-SS cells): 100 nM
- protection against the cytopathic effects of HIV-1 (HIV-1 [6]; down to a concentration of 0.1 μM): 100%
- activity against AZT-resistant G-9106 strain of HIV [7]: active
- IC50 [8]: 20 µM
- EC50 (HBV; [10]): > 2600 nM
- IC50 (Raji or Daudi cells; Homo sapiens): > 50 µg/mL
- IC50 [1]: 86.2 µg/mL (≈ 233 µM)
- EC50 (EBV; human gammaherpesvirus 4): > 50 µg/mL
- EC50 (HCMV): > 20 µg/mL
- IC50 (2.2.15 cells; [11]): 175 µM

Structure (SMILES): CCCc1cc(=O)oc2c3c(c4c(c12)OC(C)(C)C=C4)O[C@@H](C)[C@H](C)[C@H]3O [(−)-1, (-)-Calanolide A]
- antiviral effect (reducing viral CPE) (G910-6 HIV viral strain): very little antiviral effect
- antiviral effect (reducing viral CPE) (H112-2 HIV viral strain): very little antiviral effect
- toxicity ([9]; FIGS. 2(a)-2(e)): relatively non-toxic
- toxicity ([9]; at concentrations of 1 μg/mL, FIGS. 1(a)-1(e)): relatively non-toxic
- EC50 (HBV; read-out: HBV EC50, Table II): > 30000 nM
- EBV IC50 (Raji or Daudi cells): >100 µg/mL
- HCMV IC50 [1]: 80.3 µg/mL
- EBV EC50 (EBV): >100 µg/mL
- HCMV EC50 (HCMV): >20 µg/mL
- IC50 (2.2.15 cells; Table II, read-out: HBV IC50): 173 µM

Structure (SMILES): Cc1cn([C@H]2C[C@H](N=[N+]=[N-])[C@@H](CO)O2)c(=O)[nH]c1=O [AZT, reference compound]
- antiviral effect (reducing viral CPE) (G910-6 HIV viral strain): little to no effect
- antiviral effect (reducing viral CPE) (H112-2 HIV viral strain): sensitive to AZT

Structure (SMILES): CCCc1cc(=O)oc2c3c(c4c(c12)OC(C)(C)C=C4)OC(C)=C(C)C3O (stereo not drawn) [Compound 6, 12-hydroxy-6,6,10,11-tetramethyl-4-propyl-2H,6H,12H-benzo[1,2-b:3,4-b′:5,6-b″]tripyran-2-one]
- melting point: 176 to 177 °C
